# Molecular target: T1, p53 Y220C (Homo sapiens, UniProt P04637, Y220C)
# T1 construct: The recombinant protein was a truncation mutant containing only amino acids 94-312 of p53; made in house; host or cells: E. coli
# Assay: In vitro DNA binding activity assay (HTRF / TR-FRET): stabilization of p53 Y220C and increase of its DNA binding activity
# Assay type: biochemical
# Details: recombinant His-tagged p53 Y220C DNA binding domain (aa 94-312), biotin-labeled consensus DNA, incubated at 27° C. or 29° C. for 60 min
# Method in brief: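 His-tagged p53 Y220C, E. coli-expressed, binding biotin-labeled consensus DNA measured by HTRF (anti-His-APC, streptavidin-europium). Compounds from 4.5 mM DMSO stocks, 3-fold serial dilutions; incubations at room temperature 15 min, then 20 min. SC150 = concentration raising DNA binding by 50%.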
# T1 sequence (P04637 94-312, change not shown): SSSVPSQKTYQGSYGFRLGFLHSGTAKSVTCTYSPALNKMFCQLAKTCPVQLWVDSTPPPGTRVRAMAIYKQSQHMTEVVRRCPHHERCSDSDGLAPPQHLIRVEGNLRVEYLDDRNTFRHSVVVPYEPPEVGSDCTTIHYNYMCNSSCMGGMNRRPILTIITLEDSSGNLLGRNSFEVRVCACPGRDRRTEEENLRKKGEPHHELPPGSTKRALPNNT
row,SC150 (concentration of the compound required to increase the DNA binding activity by 50%),Compound
1,+ (+ = 0 μM ≤ SC150 < 0.05 μM),"COc1cc(S(C)(=O)=O)ccc1NCC#Cc1cc2c(NC3CCN(C[C@H](O)CO)CC3)cccc2n1CC(F)(F)F [Compound 558A, (2S)-3-{4-[(2-{3-[(4-methanesulfonyl-2-methoxyphenyl)amino]prop-1-yn-1-yl}-1-(2,2,2-trifluoroethyl)-1H-indol-4-yl)amino]piperidin-1-yl}propane-1,2-diol]"
2,+ (+ = 0 μM ≤ SC150 < 0.05 μM),"COc1cc(S(C)(=O)=O)ccc1NCC#Cc1cc2c(N[C@@H]3CCN(CC(C)O)C[C@@H]3F)cccc2n1CC(F)(F)F (mixture of isomers) [Compound 871A, 1-[(3S,4R)-3-fluoro-4-[(2-{3-[(4-methanesulfonyl-2-methoxyphenyl)amino]prop-1-yn-1-yl}-1-(2,2,2-trifluoroethyl)-1H-indol-4-yl)amino]piperidin-1-yl]propan-2-ol]"
3,+ (+ = 0 μM ≤ SC150 < 0.05 μM),"COc1cc(S(=O)(=O)Nc2cc(C)on2)ccc1NCC#Cc1cc2c(N[C@H]3CC[C@@H](N(C)C)CC3)cccc2n1CC(F)(F)F [Compound 54A, 3-methoxy-N-(5-methyl-1,2-oxazol-3-yl)-4-{[3-(4-{[(1S,4S)-4-(dimethylamino)cyclohexyl]amino}-l-(2,2,2-trifluoroethyl)-1H-indol-2-yl)prop-2-yn-1-yl]amino}benzene-1-sulfonamide]"
4,+ (+ = 0 μM ≤ SC150 < 0.05 μM),"COc1cc(S(N)(=O)=O)ccc1NCC#Cc1cc2c(N[C@H]3CC[C@H](N4CC5COCC5C4)CC3)cccc2n1CC(F)(F)F (stereo partly drawn) [Compound 430A, 3-methoxy-4-{[3-(4-{[(1R,4R)-4-{hexahydro-1H-furo[3,4-c]pyrrol-5-yl}cyclohexyl]amino}-1-(2,2,2-trifluoroethyl)-1H-indol-2-yl)prop-2-yn-1-yl]amino}benzene-1-sulfonamide]"
5,+ (+ = 0 μM ≤ SC150 < 0.05 μM),COc1cc(S(C)(=O)=O)ccc1NCC#Cc1cc2c(N[C@@H]3CCN(C(=O)CN)C[C@@H]3F)cccc2n1CC(F)(F)F [Compound 893A]
6,+ (+ = 0 μM ≤ SC150 < 0.05 μM),"COc1cc(S(N)(=O)=O)ccc1NCC#Cc1cc2c(NC3CCN(C[C@H](O)CO)CC3)cccc2n1CC(F)(F)F [Compound 549A, (rac)-4-({3-[4-({1-[2,3-dihydroxypropyl]piperidin-4-yl}amino)-1-(2,2,2-trifluoroethyl)-1H-indol-2-yl]prop-2-yn-1-yl}amino)-3-methoxybenzene-1-sulfonamide]"
7,+ (+ = 0 μM ≤ SC150 < 0.05 μM),"CNS(=O)(=O)c1ccc(NCC#Cc2cc3c(N[C@H]4CC[C@H](N5CCOCC5)CC4)cccc3n2CC(F)(F)F)c(OC)c1 [Compound 187A, 3-methoxy-N-methyl-4-{[3-(4-{[(1R,4R)-4-(morpholin-4-yl)cyclohexyl]amino}-1-(2,2,2-trifluoroethyl)-1H-indol-2-yl)prop-2-yn-1-yl]amino}benzene-1-sulfonamide]"
8,+ (+ = 0 μM ≤ SC150 < 0.05 μM),"CCC(=O)NS(=O)(=O)c1ccc(NCC#Cc2cc3c(N[C@H]4CC[C@H](N(C)C)CC4)cccc3n2CC(F)(F)F)c(OC)c1 [Compound 85A, N-(3-methoxy-4-{[3-(4-{[(1R,4R)-4-(dimethylamino)cyclohexyl]amino}-1-(2,2,2-trifluoroethyl)-1H-indol-2-yl)prop-2-yn-1-yl]amino}benzenesulfonyl)propanamide]"

# Continued, compound first:
row,Compound,SC150 (concentration of the compound required to increase the DNA binding activity by 50%)
1,"COCC(O)CN1CCC(Nc2cccc3c2cc(C#CCNc2ccc(C(N)=O)cc2OC)n3CC(F)(F)F)CC1 (stereo not shown) [Compound 620A, 4-{[3-(4-{[1-(2-hydroxy-3-methoxypropyl)piperidin-4-yl]amino}-1-(2,2,2-trifluoroethyl)-1H-indol-2-yl)prop-2-yn-1-yl]amino}-3-methoxybenzamide]",+ (+ = 0 μM ≤ SC150 < 0.05 μM)
2,"COc1cc(C(=O)NCC(COC(=O)C(C)C)OC)ccc1NCC#Cc1cc2c(N[C@@H]3CCN(C)C[C@@H]3F)cccc2n1CC(F)(F)F (stereo partly drawn) [Compound 1061A, 3-[(4-{[3-(4-{[(3S,4R)-3-fluoro-1-methylpiperidin-4-yl]amino}-1-(2,2,2-trifluoroethyl)-1H-indol-2-yl)prop-2-yn-1-yl]amino}-3-methoxyphenyl)formamido]-2-methoxypropyl 2-methylpropanoate]",+ (+ = 0 μM ≤ SC150 < 0.05 μM)
3,"COc1cc(C(N)=O)ccc1NCC#Cc1cc2c(N[C@H]3C[C@@H](C)O[C@@H](C)C3)cccc2n1CC(F)(F)F [Compound 1029A, 3-methoxy-4-{[3-(4-{[(2R,4R,6S)-2,6-dimethyloxan-4-yl]amino}-1-(2,2,2-trifluoroethyl)-1H-indol-2-yl)prop-2-yn-1-yl]amino}benzamide]",+++ (+++ = 0.1 μM ≤ SC150 < 0.2 μM)
4,"CCn1ccc(C(=O)NCC#Cc2cc3c(N[C@@H]4CCN(C)C[C@@H]4F)cccc3n2CC(F)(F)F)c1 [Compound 954A, 1-ethyl-N-[3-(4-{[(3S,4R)-3-fluoro-1-methylpiperidin-4-yl]amino}-1-(2,2,2-trifluoroethyl)-1H-indol-2-yl)prop-2-yn-1-yl]-1H-pyrrole-3-carboxamide]",+ (+ = 0 μM ≤ SC150 < 0.05 μM)
5,"CCN1CCC(Nc2cccc3c2cc(C#CCNc2ccc(S(C)(=O)=O)cc2OCF)n3CC(F)(F)F)CC1 [Compound 534A, N-(1-ethylpiperidin-4-yl)-2-(3-{[2-(fluoromethoxy)-4-methanesulfonylphenyl]amino}prop-1-yn-1-yl)-1-(2,2,2-trifluoroethyl)-1H-indol-4-amine]",+ (+ = 0 μM ≤ SC150 < 0.05 μM)
6,"COC(=O)c1ccc(NCC#Cc2cc3c(N[C@H]4CCN(CC(=O)N(C)C)C[C@H]4F)cccc3n2CC(F)(F)F)c(OC)c1 [Compound 914A, methyl 4-{[3-(4-{[(3R,4S)-1-[(dimethylcarbamoyl)methyl]-3-fluoropiperidin-4-yl]amino}-1-(2,2,2-trifluoroethyl)-1H-indol-2-yl)prop-2-yn-1-yl]amino}-3-methoxybenzoate]",+ (+ = 0 μM ≤ SC150 < 0.05 μM)
7,"CNC(=O)c1ccc(NCC#Cc2cc3c(N[C@H]4CC[C@H](N5CCC6(CCO6)CC5)CC4)cccc3n2CC(F)(F)F)c(OC)c1 [Compound 385A, 3-methoxy-N-methyl-4-{[3-(4-{[(1R,4R)-4-{1-oxa-7-azaspiro[3.5]nonan-7-yl}cyclohexyl]amino}-1-(2,2,2-trifluoroethyl)-1H-indol-2-yl)prop-2-yn-1-yl]amino}benzamide]",+ (+ = 0 μM ≤ SC150 < 0.05 μM)
8,"COc1cc(C(N)=O)ccc1NCC#Cc1cc2c(N[C@H]3CC[C@H](N4CC5(CCOCC5)C4)CC3)cccc2n1CC(F)(F)F [Compound 331A, 3-methoxy-4-{[3-(4-{[(1R,4R)-4-{7-oxa-2-azaspiro[3.5]nonan-2-yl}cyclohexyl]amino}-1-(2,2,2-trifluoroethyl)-1H-indol-2-yl)prop-2-yn-1-yl]amino}benzamide]",+ (+ = 0 μM ≤ SC150 < 0.05 μM)

# Reference: patent US12428406B2 (PMV Pharmaceuticals, Inc., priority 2019, dated 2025)
